# Test results as given in ChEMBL document CHEMBL1137403, “Discovery of 2-[4-{{2-(2S,5R)-2-cyano-5-ethynyl-1-pyrrolidinyl]-2-oxoethyl]amino]- 4-methyl-1-piperidinyl]-4-pyridinecarboxylic acid (ABT-279): a very potent, selective, effective, and well-tolerated inhibitor of dipeptidyl peptidase-IV, useful for the treatment of diabetes” (J Med Chem, 2006).
# How the values were obtained:
# [1] = molecular target: Dipeptidyl peptidase 8 (Homo sapiens, UniProt Q6V1X1)
# [2] = molecular target: Dipeptidyl peptidase 9 (Homo sapiens, UniProt Q86TI2)
# Dipeptidyl peptidase 9, sequence (Q86TI2 whole entry): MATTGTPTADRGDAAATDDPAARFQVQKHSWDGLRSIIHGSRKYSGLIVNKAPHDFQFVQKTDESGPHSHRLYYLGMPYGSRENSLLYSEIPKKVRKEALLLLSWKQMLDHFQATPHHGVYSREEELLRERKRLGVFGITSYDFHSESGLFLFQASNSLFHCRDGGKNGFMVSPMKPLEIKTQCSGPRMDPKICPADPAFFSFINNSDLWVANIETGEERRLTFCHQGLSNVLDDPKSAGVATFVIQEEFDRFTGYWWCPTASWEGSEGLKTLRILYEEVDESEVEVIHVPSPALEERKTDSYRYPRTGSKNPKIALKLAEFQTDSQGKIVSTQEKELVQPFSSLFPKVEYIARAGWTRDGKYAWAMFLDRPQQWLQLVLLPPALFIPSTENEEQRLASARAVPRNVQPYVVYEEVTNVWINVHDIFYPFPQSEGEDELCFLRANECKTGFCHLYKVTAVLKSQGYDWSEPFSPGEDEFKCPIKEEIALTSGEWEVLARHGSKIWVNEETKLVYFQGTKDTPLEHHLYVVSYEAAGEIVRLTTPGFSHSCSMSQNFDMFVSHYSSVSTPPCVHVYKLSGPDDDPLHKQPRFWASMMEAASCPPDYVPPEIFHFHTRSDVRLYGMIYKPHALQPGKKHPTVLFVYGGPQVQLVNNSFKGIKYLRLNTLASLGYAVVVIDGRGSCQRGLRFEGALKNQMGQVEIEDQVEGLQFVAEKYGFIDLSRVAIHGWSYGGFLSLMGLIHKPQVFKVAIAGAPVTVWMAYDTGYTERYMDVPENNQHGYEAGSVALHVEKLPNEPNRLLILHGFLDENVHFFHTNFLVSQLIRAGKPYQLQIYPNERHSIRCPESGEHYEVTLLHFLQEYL
# Dipeptidyl peptidase 8, sequence (Q6V1X1 whole entry): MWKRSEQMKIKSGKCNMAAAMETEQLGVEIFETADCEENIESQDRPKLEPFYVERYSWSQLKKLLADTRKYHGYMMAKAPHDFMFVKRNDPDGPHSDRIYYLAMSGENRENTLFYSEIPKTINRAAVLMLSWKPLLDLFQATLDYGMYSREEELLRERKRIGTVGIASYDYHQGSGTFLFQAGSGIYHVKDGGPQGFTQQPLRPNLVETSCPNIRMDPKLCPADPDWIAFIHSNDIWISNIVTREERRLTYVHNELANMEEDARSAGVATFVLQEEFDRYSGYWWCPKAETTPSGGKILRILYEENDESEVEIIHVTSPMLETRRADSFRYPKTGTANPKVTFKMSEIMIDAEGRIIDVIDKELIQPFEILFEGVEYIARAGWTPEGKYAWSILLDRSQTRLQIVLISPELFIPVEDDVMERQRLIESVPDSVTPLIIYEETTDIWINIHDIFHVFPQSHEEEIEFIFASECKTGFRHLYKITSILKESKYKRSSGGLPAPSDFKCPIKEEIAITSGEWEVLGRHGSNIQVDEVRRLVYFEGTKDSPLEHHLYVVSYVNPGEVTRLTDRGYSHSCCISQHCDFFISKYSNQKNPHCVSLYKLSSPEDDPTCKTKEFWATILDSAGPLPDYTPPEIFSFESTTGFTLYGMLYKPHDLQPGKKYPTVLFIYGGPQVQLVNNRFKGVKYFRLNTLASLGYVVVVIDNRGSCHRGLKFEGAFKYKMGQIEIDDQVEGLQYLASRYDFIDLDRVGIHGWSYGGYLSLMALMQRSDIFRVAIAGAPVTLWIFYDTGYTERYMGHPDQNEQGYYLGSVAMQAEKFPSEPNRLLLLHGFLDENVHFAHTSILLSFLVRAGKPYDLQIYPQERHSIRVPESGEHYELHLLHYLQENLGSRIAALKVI
compound,measurement,setting,value
C#C[C@H]1CC[C@@H](C#N)N1C(=O)CN[C@H]1CC[C@H](Oc2ccc(C#N)cn2)CC1 (mixture of isomers),Ki,[1],> 30 µM
C#C[C@H]1CC[C@@H](C#N)N1C(=O)CNC12CC3CC(CC(O)(C3)C1)C2,Ki,[1],> 30 µM
same,Ki,[2],> 30 µM
